A short description of data set [1]: Selectivity index, ratio of IC50 for cytotoxicity against human HepG2 cells to IC50 for antimalarial activity against asexual blood stage wild-type Plasmodium falciparum 3D7. The note with it: read-out: Ratio IC50. In kind it is toxicity, cell-based.
Data set [2] can be described thus: Selectivity index, ratio of IC50 for cytotoxicity against HEK293T cells to IC50 for antimalarial activity against asexual blood stage wild-type Plasmodium falciparum 3D7. It is filed as toxicity, cell-based. The note with it: human, read-out: Ratio IC50.
Data set [3] is described as follows: Metabolic stability in mouse liver microsomes assessed as half life at […] incubated for 45 mins in presence of NADPH by LC/MS analysis. It is filed as ADME, Microsome. The note with it: for half-life: liver microsomes.
A short description of data set [4]: Cytotoxicity against human HepG2 cells incubated for 72 hrs by CCK-8 assay.
The subject of data set [5] is Plasmodium falciparum. The data set can be described thus: Antimalarial activity against asexual blood stage wild-type Plasmodium falciparum 3D7 assessed as parasite growth inhibition incubated for 72 hrs by SYBR Green I staining based fluorescence analysis. In kind it is functional, organism-based. Particulars: 3D7, 72 h.
Data set [6] has as its system Plasmodium falciparum. The data set can be described thus: Antimalarial activity against asexual blood stage chloroquine-resistant Plasmodium falciparum Dd2 assessed as parasite growth inhibition incubated for 72 hrs by SYBR Green I staining based fluorescence analysis. The note with it: Dd2, 72 h. It is filed as functional, organism-based.
The nature of data set [7]: Cytotoxicity against HEK293T cells incubated for 72 hrs by CCK-8 assay. The note with it: human. For orientation: Tetrazolium dyes change colour on reduction, which living cells bring about.
Data set [8] can be described thus: Metabolic stability in mouse liver microsomes assessed as intrinsic clearance at […] incubated for 45 mins in presence of NADPH by LC/MS analysis. Particulars: read-out: CLH. It is filed as ADME, Microsome. On the technique in general: Liver microsomes are vesicles of endoplasmic reticulum, rich in cytochrome P450 enzymes.
The test system of data set [9] is Plasmodium falciparum. The data set can be described thus: Antimalarial activity against ART-resistant Plasmodium falcipuram 6218 harbouring C580Y mutant infected in human RBC assessed as reduction in parasitemia in blood smear by measuring parasite survival ratio at ring stage at upto 700 nM incubated for 6 hrs followed by compound washout and replacement with fresh medium without compounds and measured after 66 hrs by ring stage survival assay. Particulars: dose nM <=700. It is filed as functional.

For data set [10], the system named is Plasmodium falciparum. Nature of the data set: Antimalarial activity against wild-type Plasmodium falcipuram 3D7 infected in human RBC assessed as reduction in parasitemia in blood smear by measuring parasite survival ratio at ring stage at upto 700 nM incubated for 6 hrs followed by compound washout and replacement with fresh medium without compounds and measured after 66 hrs by ring stage survival assay. Particulars: dose nM <=700. It is filed as functional.

The test system of data set [11] is Plasmodium falciparum. The data set can be described thus: Antimalarial activity against ART-resistant Plasmodium falcipuram 6320 harbouring C580Y mutant infected in human RBC assessed as reduction in parasitemia in blood smear by measuring parasite survival ratio at ring stage at upto 700 nM incubated for 6 hrs followed by compound washout and replacement with fresh medium without compounds and measured after 66 hrs by ring stage survival assay. In kind it is functional. The note with it: dose nM <=700.

Data set [12] concerns Plasmodium falciparum. The data set can be described thus: Antimalarial activity against asexual blood stage sulfadoxine-pyrimethamine/mefloquine-resistant Plasmodium falcipuram CP286 assessed as parasite growth inhibition incubated for 72 hrs by SYBR Green I staining based fluorescence analysis. In kind it is functional, organism-based. Particulars: CP286, 72 h.
Data set [13] concerns Plasmodium falciparum. Nature of the data set: Antimalarial activity against asexual blood stage chloroquine-resistant Plasmodium falcipuram GB4 assessed as parasite growth inhibition incubated for 72 hrs by SYBR Green I staining based fluorescence analysis. In kind it is functional, organism-based. Particulars: GB4, 72 h.
Data set [14] concerns Plasmodium falciparum. The data set can be described thus: Antimalarial activity against asexual blood stage quinine-resistant Plasmodium falcipuram C2A assessed as parasite growth inhibition incubated for 72 hrs by SYBR Green I staining based fluorescence analysis. It is filed as functional, organism-based.
Data set [15] has as its system Plasmodium yoelii. The data set can be described thus: Antimalarial activity against blood stage Plasmodium yoelii infected in BALB/c mouse assessed as parasite killing by measuring RBC cells in blood smear at 60 mg/kg, ip qd for 5 days by microscopic analysis. Particulars: Erythrocyte, time 5.0 day. It is filed as functional, organism-based.
In data set [16] the test system is Plasmodium yoelii. The data set can be described thus: Antimalarial activity against blood stage Plasmodium yoelii infected in BALB/c mouse assessed as parasitemia at 60 mg/kg, ip qd for 5 days and measured after 16 days. In kind it is functional. The note with it: time 16 day.
The subject of data set [17] is Plasmodium yoelii. Nature of the data set: Antimalarial activity against blood stage Plasmodium yoelii infected in BALB/c mouse assessed as parasitemia at 60 mg/kg, ip qd for 5 days and measured after 14 days. In kind it is functional. Particulars: time 14 day.
The target of data set [18] is T1, NAD-dependent protein deacetylase sirtuin-2 (Homo sapiens, UniProt Q8IXJ6).
T1 sequence (Q8IXJ6 whole entry): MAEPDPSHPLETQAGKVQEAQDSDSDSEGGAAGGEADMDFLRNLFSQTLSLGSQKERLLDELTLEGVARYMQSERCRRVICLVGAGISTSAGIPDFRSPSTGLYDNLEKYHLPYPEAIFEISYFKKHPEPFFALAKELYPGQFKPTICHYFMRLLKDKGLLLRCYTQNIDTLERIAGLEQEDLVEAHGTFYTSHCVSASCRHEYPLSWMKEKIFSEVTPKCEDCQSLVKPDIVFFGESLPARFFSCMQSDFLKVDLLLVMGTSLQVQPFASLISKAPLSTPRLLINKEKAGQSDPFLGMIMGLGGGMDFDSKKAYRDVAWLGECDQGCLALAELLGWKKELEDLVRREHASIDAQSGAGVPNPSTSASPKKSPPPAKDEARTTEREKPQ
Nature of the data set: Inhibition of human C-terminal His-tagged SIRT2 (50 to 356 residues) expressed in Escherichia coli using Ac-peptide as substrate incubated for 4 hrs followed by trypsin addition and further incubated for 2 hrs.

Each structure is given as a SMILES string. pIC50: −log10 of the molar value. Activity calls are given as the source filed them. The calls are words filed in the database; no cut-off is given here.

Here are results for 7 compounds from ChEMBL document CHEMBL5046276 (J Med Chem, 2022).

Consider `Cl.Cn1cc(CN2CC3(CCN(c4ncc(C(=O)NO)cn4)C3)C2)c2ccc(Br)cc21`, for which the selectivity ratio in [1] was 381; in data set [2], 365. Besides, the half-life (as a rule, how long it takes for the measured level to halve) in [3] stood at 6.64 h. The values for the IC50 at 72 h in data set [4] and in [7] were 750 nM and 720 nM, respectively. Further, the values for the negative-log IC50 (pIC50) in the data set with Plasmodium falciparum [5] and in the data set with Plasmodium falciparum [6] were 8.71 and 8.62, respectively. The CLint scaled in [8] was determined as 13.7 mL/min/kg.

For `C[C@@H]1CC[C@H]2[C@@H](C)C(=O)O[C@@H]3O[C@@]4(C)CC[C@@H]1[C@]32OO4` [ARTEMISININ], the Activity in the data set on Plasmodium falciparum [9] was 8%; with Plasmodium falciparum [10], 0.1%; in the data set on Plasmodium falciparum [11], 8%.

Take `C[C@H]1[C@@H](O)O[C@@H]2O[C@@]3(C)CC[C@H]4[C@H](C)CC[C@@H]1[C@@]24OO3` [ARTENIMOL]: the pIC50 (as a rule, the IC50 on a negative log10 scale, so that one unit is a factor of ten) in the data set on Plasmodium falciparum [12] was 8.09; with Plasmodium falciparum [13] it was 8.63; in the data set with Plasmodium falciparum [5] it was 8.55; in the data set with Plasmodium falciparum [6], 8.56; in the data set with Plasmodium falciparum [14], 8.68.

As to `Cl.Cn1c(CN2CC3(CCN(c4ncc(C(=O)NO)cn4)C3)C2)nc2ccccc21`, the outcome with Plasmodium yoelii [15] was inactive. The selectivity ratio in data set [1] was above 5140; in data set [2] it was 5070. Moreover, the pIC50 with Plasmodium falciparum [12] was 8.01; in the data set on Plasmodium falciparum [13] it was 8.33; with Plasmodium falciparum [5], 8.74; in the data set with Plasmodium falciparum [6], 8.40; with Plasmodium falciparum [14], 8.42. Besides, in data set [3], the half-life was found to be 2.23 h. Further, in the data set with Plasmodium yoelii [16], the Activity turned out to be 16.57%. For the same compound, the IC50 (in general, the concentration that gives 50% inhibition) at 72 h in data set [4] was above 9450 nM; in data set [7], 9330 nM. Also, in data set [8], the CLint scaled turned out to be 40.7 mL/min/kg.

Take `Cl.Cn1cc(CN2CC3(CCN(c4ncc(C(=O)NO)cn4)C3)C2)c2ncccc21`: the result with Plasmodium yoelii [15] was inactive. The selectivity ratio in data set [1] and in data set [2] was above 7490 throughout. In addition, the pIC50 is 7.88 in the data set with Plasmodium falciparum [12]; 8.35 in the data set with Plasmodium falciparum [13]; 8.57 in the data set with Plasmodium falciparum [5]; 8.51 in the data set with Plasmodium falciparum [6]; 8.42 in the data set with Plasmodium falciparum [14]. The Activity in the data set with Plasmodium yoelii [17] is 46.37%. Further, the t1/2 in data set [3] (microsomes, 0.75 h, 10000 µM) amounted to 2.9965 h. The IC50 at 72 h in [4] is 20000 nM; in data set [7] it was above 20000 nM.

On to `Cc1ccc(C(=O)Nc2ccc(S(=O)(=O)O)c3cc(S(=O)(=O)O)cc(S(=O)(=O)O)c23)cc1NC(=O)c1cccc(NC(=O)Nc2cccc(C(=O)Nc3cc(C(=O)Nc4ccc(S(=O)(=O)O)c5cc(S(=O)(=O)O)cc(S(=O)(=O)O)c45)ccc3C)c2)c1` [SURAMIN], for which the negative logarithm of the IC50 (pIC50) in data set [18] was 5.26.

In the case of `Cl.O=C(NO)c1cnc(N2CCC3(CN(Cc4cnc5ccccc5c4)C3)C2)nc1`, the values for the selectivity ratio in [1] and in [2] were 537 and 953, respectively. Also, the half-life in data set [3] came out at 0.222 h. In addition, the half-inhibitory concentration (IC50) at 72 h worked out at 2040 nM in data set [4] and 3620 nM in data set [7]. The negative-log IC50 (pIC50) in the data set on Plasmodium falciparum [5] is 8.42; with Plasmodium falciparum [6] it was 8.59. For the same compound, in [8], the CLint scaled was found to be 410 mL/min/kg.
